“And” between values parts separate entries of the source, which are not always exact repeats. Equal values may be shown once. Numbers after ± are expanded uncertainties.
Settings: Pendant drop shape

With O [water] the surface tension liquid-gas (283.2 K) was 74.8 ± 2.3 mN/m and 74.83 ± 2.1 mN/m, the surface tension liquid-gas (288.2 K) was 73.65 ± 2.3 mN/m and 73.67 ± 2.1 mN/m and the surface tension liquid-gas (293.2 K) was 73.07 ± 2.1 mN/m and 73.03 ± 2.1 mN/m. For the same compound, the surface tension liquid-gas (298.2 K) was 72.21 ± 2.2 mN/m and 72.13 ± 2.1 mN/m.

Source: the NIST ThermoML archive (doi:10.1016/j.jct.2017.01.007)
